From US20210198277A1, “AMINE-SUBSTITUTED ARYL OR HETEROARYL COMPOUNDS” (Epizyme, Inc., priority 2016, published 2021)
pIC50: −log10 of the molar value.

target: T1, EHMT2 (Homo sapiens, UniProt Q96KQ7); experiment: MDA-MB-231 H3K9me2 in-cell Western assay (EHMT2 ICW); assay type: cell-based; details: Table VI; read-out: EHMT2 ICW IC50
T1 construct: host or cells: MDA-MB-231
T1 sequence (Q96KQ7 1-1210): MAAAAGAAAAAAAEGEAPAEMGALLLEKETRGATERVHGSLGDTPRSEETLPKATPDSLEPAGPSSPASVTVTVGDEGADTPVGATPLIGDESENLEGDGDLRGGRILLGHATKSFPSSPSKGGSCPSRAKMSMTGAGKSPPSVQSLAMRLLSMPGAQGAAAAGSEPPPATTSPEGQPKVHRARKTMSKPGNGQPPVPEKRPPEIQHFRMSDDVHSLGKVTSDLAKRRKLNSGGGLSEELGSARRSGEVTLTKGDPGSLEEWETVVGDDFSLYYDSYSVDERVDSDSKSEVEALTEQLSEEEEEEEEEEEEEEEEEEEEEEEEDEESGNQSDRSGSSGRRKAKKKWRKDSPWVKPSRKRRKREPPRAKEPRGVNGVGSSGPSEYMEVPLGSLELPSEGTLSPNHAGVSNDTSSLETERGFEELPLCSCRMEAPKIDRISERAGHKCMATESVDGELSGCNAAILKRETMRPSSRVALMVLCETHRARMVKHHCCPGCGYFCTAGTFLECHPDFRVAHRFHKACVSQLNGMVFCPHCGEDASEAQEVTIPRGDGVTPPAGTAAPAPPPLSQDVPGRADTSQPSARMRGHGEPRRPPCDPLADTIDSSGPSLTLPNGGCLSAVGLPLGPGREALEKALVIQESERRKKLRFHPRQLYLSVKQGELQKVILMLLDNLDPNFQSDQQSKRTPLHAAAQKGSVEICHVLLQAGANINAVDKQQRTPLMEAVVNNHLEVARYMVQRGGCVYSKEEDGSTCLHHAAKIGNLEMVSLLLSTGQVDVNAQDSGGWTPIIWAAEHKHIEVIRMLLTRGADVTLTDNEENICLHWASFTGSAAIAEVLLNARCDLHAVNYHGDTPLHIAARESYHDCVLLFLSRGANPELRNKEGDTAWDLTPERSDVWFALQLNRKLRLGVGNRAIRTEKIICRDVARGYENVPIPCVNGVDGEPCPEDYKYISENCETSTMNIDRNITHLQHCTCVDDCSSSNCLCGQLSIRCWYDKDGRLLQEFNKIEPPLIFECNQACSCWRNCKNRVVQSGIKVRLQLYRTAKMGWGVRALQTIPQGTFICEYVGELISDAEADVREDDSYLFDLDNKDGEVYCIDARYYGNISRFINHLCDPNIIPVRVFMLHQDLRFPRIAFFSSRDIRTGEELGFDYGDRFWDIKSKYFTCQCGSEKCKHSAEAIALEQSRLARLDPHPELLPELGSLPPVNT
Method in brief: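 MDA-MB-231 cells (3,000/well) were exposed to compound for 30 min at room temperature and then 48 h at 37 °C, fixed with paraformaldehyde, and stained with anti-H3K9me2 (800 nm) plus DRAQ5 (700 nm). Per-well channel ratios gave percent inhibition, and IC50 came from a four-parameter fit of triplicate wells.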

pIC50 | SMILES
< 5.00 | COc1cc(NC2CCNCC2)ncc1OCC1CCN(C)C1 (stereo not shown) [Compound 604]
< 5.00 | COc1nc(NC2CCNCC2)ncc1OCC1CCN(C)C1 (stereo not shown) [Compound 605]
5.00 to 6.00 | CCN1CC(COc2cc(Nc3nc(C)cc4[nH]ncc34)ncc2OC)C1 [Compound 607]
< 5.00 | CNc1cc(C)nc(Nc2cc(OCCCN3CCCC3)n3cnnc3c2)n1 [Compound 628]
< 5.00 | COc1cc(NC2CCNCC2)ncc1OCC1CCNC1 (stereo not shown) [Compound 629]
< 5.00 | CCc1nc(NC2CCNCC2)ncc1OCC1CCN(C)C1 (stereo not shown) [Compound 630]
< 5.00 | CCc1nc(NC2CCNCC2)ncc1OCC1CN(C(C)C)C1 [Compound 631]
< 5.00 | CN1CCC(Nc2ncc(OCC3CCN(C)C3)cn2)CC1 (stereo not shown) [Compound 632]
< 5.00 | CN1CCC(COc2cnc(N(C)C3CCNCC3)nc2)C1 (stereo not shown) [Compound 633]
< 5.00 | COc1cc(N(C)C2CCNCC2)ncc1OCC1CCN(C)C1 (stereo not shown) [Compound 634]
< 5.00 | COc1cc(N(C)C2CCNCC2)ncc1OCC1CCN(C)C1 (stereo not shown) [Compound 635]
< 5.00 | CC(C)N1CC(COc2cnc(NC3CCNCC3)nc2)C1 [Compound 636]
< 5.00 | CC(C)N1CC[C@@H](COc2cnc(N(C)C3CCNCC3)nc2)C1 [Compound 637]
< 5.00 | COc1cnc(Nc2cccn3cncc23)cc1OCCCN1CCCC1 [Compound 638]
< 5.00 | COc1cnc(NC(=O)/C=C/CN(C)C)cc1OCCCN1CCCC1 [Compound 640]
6.00 to 7.00 | CNc1cc(C)nc(Nc2cnc(OC)c(OC[C@@H]3CCNC3)c2)n1 [Compound 641]
< 5.00 | COc1cc(Nc2ccc3[nH]ncc3c2)ncc1OCCCN1CCCC1 [Compound 643]
6.00 to 7.00 | CNc1cc(C)nc(Nc2ccc(OC)c(CNCCN3CCCC3)c2)n1 [Compound 644, 2-N-[4-methoxy-3-([[2-(pyrrolidin-1-yl)ethyl]amino]methyl)phenyl]-4-N,6-dimethylpyrimidine-2,4-diamine]
5.00 to 6.00 | CNc1cc(C)nc(Nc2ccc(OC)c(CN(C)CCN3CCCC3)c2)n1 [Compound 645]
5.00 to 6.00 | CCN1CCC(NCc2cc(Nc3nc(C)cc(NC)n3)ccc2OC)C1 (stereo not shown) [Compound 646]
< 5.00 | CCN1CC(NCc2cc(Nc3nc(C)cc(NC)n3)ccc2OC)C1 [Compound 647]
< 5.00 | COc1cc(Nc2ccc3[nH]ncc3n2)ncc1OCCCN1CCCC1 [Compound 648]
6.00 to 7.00 | CCN1CC([C@H](C)Oc2cc(Nc3nc(C)cc(NC)n3)ccc2OC)C1 [Compound 649]
< 5.00 | CCN1CC(N(C)Cc2cc(Nc3nc(C)cc(NC)n3)ccc2OC)C1 [Compound 650]
< 5.00 | CCN1CCC(N(C)Cc2cc(Nc3nc(C)cc(NC)n3)ccc2OC)C1 (stereo not shown) [Compound 651]

pIC50 | SMILES
5.00 to 6.00 | COc1cc2c(C3CCN(C)CC3)c(F)c(C)nc2cc1OCCCN1CCCC1 [Compound 652]
< 5.00 | COc1cnc(Nc2cccc3nccn23)nc1OCCCN1CCCC1 [Compound 654]
< 5.00 | COc1cnc(Nc2cccc3[nH]ncc23)nc1OCCCN1CCCC1 [Compound 655]
< 5.00 | COc1cnc(Nc2cccc3nncn23)nc1OCCCN1CCCC1 [Compound 656]
< 5.00 | COc1cc2c(C3CCN(C)CC3)nc(C)nc2cc1OCCCN1CCCC1 [Compound 658]
< 5.00 | COc1cc2c(C3CCN(C(C)C)CC3)nc(C)nc2cc1OCCCN1CCCC1 [Compound 659]
5.00 to 6.00 | CCN1CC(COc2cc3nc(C)cc(C4CCN(C)CC4)c3cc2OC)C1 [Compound 660]
5.00 to 6.00 | CCN1CC(COc2cc3nc(C)cc(C4CCN(C(C)C)CC4)c3cc2OC)C1 [Compound 661]
6.00 to 7.00 | CCN1CC[C@@H](COc2cc3nc(C)cc(C4CCN(C)CC4)c3cc2OC)C1 [Compound 662]
6.00 to 7.00 | CCN1CC[C@@H](COc2cc3nc(C)cc(C4CCN(C(C)C)CC4)c3cc2OC)C1 [Compound 663]
< 5.00 | CCN1CC(COc2cc3nc(C)nc(C4CCN(C)CC4)c3cc2OC)C1 [Compound 664]
< 5.00 | CCN1CC(COc2cc3nc(C)nc(C4CCN(C(C)C)CC4)c3cc2OC)C1 [Compound 665]
6.00 to 7.00 | CCN1CC[C@@H](COc2cc(Nc3nc(C)cc(NCC4CCOCC4)n3)ccc2OC)C1 [Compound 667]
6.00 to 7.00 | COc1cc2c(C3CCOCC3)cc(C)nc2cc1OCCCN1CCCC1 [Compound 668]
< 5.00 | COc1cc2c(C3CCN(C(C)C)CC3)cc(C)nc2nc1OCCCN1CCCC1 [Compound 670]
6.00 to 7.00 | CCc1cc(NC)nc(Nc2ccc(OC)c(OC[C@@H]3CCN(CC)C3)c2)n1 [Compound 671]
6.00 to 7.00 | CCN1CC[C@@H](COc2cc(Nc3nc(NC)cc(C(C)C)n3)ccc2OC)C1 [Compound 672]
< 5.00 | CCN1CC[C@@H](COc2cc3nc(C)nc(C4CCN(C)CC4)c3cc2OC)C1 [Compound 673]
< 5.00 | CCN1CC[C@@H](COc2cc3nc(C)nc(C4CCN(C(C)C)CC4)c3cc2OC)C1 [Compound 674]
< 5.00 | CNc1cc(C)nc(Nc2cnc(OC)c(O)c2)n1 [Compound 676]
< 5.00 | COc1cc2c(C3CCN(C)CC3)cc(-c3cn[nH]c3)nc2cc1OCCCN1CCCC1 [Compound 677]
5.00 to 6.00 | COc1cc2c(C3CCN(C)CC3)cc(-c3cc[nH]n3)nc2cc1OCCCN1CCCC1 [Compound 678]
5.00 to 6.00 | COc1cc2c(C3CCOCC3)cc(-c3cn[nH]c3)nc2cc1OCCCN1CCCC1 [Compound 679]
< 5.00 | CNCCN(C)Cc1cc(Nc2nc(C)cc(NC)n2)ccc1OC [Compound 680]
5.00 to 6.00 | COc1cc2c(C3CCN(C)CC3)nc(-c3cn[nH]c3)nc2cc1OCCCN1CCCC1 [Compound 681]

pIC50 | SMILES
6.00 to 7.00 | COCCN1CCC(c2cc(C)nc3cc(OCCCN4CCCC4)c(OC)cc23)CC1 [Compound 682]
< 5.00 | COc1cnc(Nc2ccc3[nH]nnc3c2)cc1OCCCN1CCCC1 [Compound 686]
5.00 to 6.00 | CCN1CC([C@@H](C)Oc2cc(Nc3nc(C)cc(NC)n3)ccc2OC)C1 [Compound 687]
> 7.00 | CNc1cc(C)c2cc(OC)c(OCCCN3CCCC3)cc2n1 [Compound 736]
< 5.00 | CNc1nc(C)c2cc(OC)c(OCCCN3CCCC3)cc2n1 [Compound 737]
5.00 to 6.00 | COc1cc2c(C)cc(N3CCNCC3)nc2cc1OCCCN1CCCC1 [Compound 738]
< 5.00 | COc1cc2c(C)nc(N3CCNCC3)nc2cc1OCCCN1CCCC1 [Compound 739]
5.00 to 6.00 | CNc1nc(C2CCN(CCOC)CC2)c2cc(OC)c(OCCCN3CCCC3)cc2n1 [Compound 740]
5.00 to 6.00 | COc1cc2c(C3CCN(C)CC3)cc(C)nc2cc1OCCCN1CC[C@H](F)C1 [Compound 741]
5.00 to 6.00 | COc1cc2c(C3CCN(C)CC3)cc(C)nc2cc1OCCCN1CC[C@@H](F)C1 [Compound 742]
< 5.00 | COc1cc2c(C3CCCN(C)C3)nc(C)nc2cc1OCCCN1CCCC1 (stereo not shown) [Compound 743]
< 5.00 | COc1cc2c(C3CCN(C)C3)nc(C)nc2cc1OCCCN1CCCC1 (stereo not shown) [Compound 745]
< 5.00 | CNc1nc(C2CCCN(C)C2)c2cc(OC)c(OCCCN3CCCC3)cc2n1 (stereo not shown) [Compound 746]
< 5.00 | CNc1ccnc(Nc2ccc(OC)c(CNC[C@@H]3CCCN3)c2)n1 [Compound 1019]
< 5.00 | CNc1ccnc(Nc2ccc(OC)c(CNC[C@H]3CCCN3)c2)n1 [Compound 1020]
5.00 to 6.00 | CNc1ccnc(Nc2ccc(OC)c(OCC[C@@H]3CCCN3)c2)n1 [Compound 1021]
< 5.00 | CNc1ccnc(Nc2ccc(OC)c(OCC[C@H]3CCCN3)c2)n1 [Compound 1022]
6.00 to 7.00 | CNc1cc(C)c2cc(OC)c(OC[C@H](O)CN3CCC3)cc2n1 [Compound 1028]
6.00 to 7.00 | CNc1cc(C)nc(Nc2ccc(OC)c(CNCCN3CC[C@@H](F)C3)c2)n1 [Compound 1030]
6.00 to 7.00 | CNc1cc(C)nc(Nc2cnc(OC)c(CNCCN3CCCC3)c2)n1 [Compound 1031]
6.00 to 7.00 | CNc1ccnc(Nc2ccc(OC)c(CNCCN3CCCC3)c2)n1 [Compound 1032]
6.00 to 7.00 | CNc1ccnc(Nc2ccc(OC)c(CNCCN3CCC3)c2)n1 [Compound 1033]
5.00 to 6.00 | CNCCNCc1cc(Nc2nccc(NC)n2)ccc1OC [Compound 1034]
